From patent publication US11976083B2, “Inhibitors of peptidylarginine deiminases” (Gilead Sciences, Inc., priority 2020, dated 2024)

biological target: T1, human PAD4 (Homo sapiens, UniProt Q9UM07); experiment: In vitro PAD4 BAEE biochemical assay; settings: BAEE substrate 3 mM, 5 nM PAD4, 2 mM calcium chloride; geometric mean of multiple experiments
T1 construct: human PAD4 (NM_012387), A2-P663, was PCR amplified; His-SUMO (N, cleaved yes); made in house; host or cells: E. coli BL21(DE3)
In short: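 Recombinant human PAD4 (5 nM final) with 2 mM CaCl2 was preincubated with compound 30 min at 25 °C in MOPS buffer pH 7.6, then reacted with 3 mM BAEE for 2 h at 25 °C. After EDTA stop, released ammonia was detected by o-phthalaldehyde/DTT fluorescence (ex 405/em 535 nm); IC50 from four-parameter fit, geometric mean.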

T1 sequence (Q9UM07 2-663): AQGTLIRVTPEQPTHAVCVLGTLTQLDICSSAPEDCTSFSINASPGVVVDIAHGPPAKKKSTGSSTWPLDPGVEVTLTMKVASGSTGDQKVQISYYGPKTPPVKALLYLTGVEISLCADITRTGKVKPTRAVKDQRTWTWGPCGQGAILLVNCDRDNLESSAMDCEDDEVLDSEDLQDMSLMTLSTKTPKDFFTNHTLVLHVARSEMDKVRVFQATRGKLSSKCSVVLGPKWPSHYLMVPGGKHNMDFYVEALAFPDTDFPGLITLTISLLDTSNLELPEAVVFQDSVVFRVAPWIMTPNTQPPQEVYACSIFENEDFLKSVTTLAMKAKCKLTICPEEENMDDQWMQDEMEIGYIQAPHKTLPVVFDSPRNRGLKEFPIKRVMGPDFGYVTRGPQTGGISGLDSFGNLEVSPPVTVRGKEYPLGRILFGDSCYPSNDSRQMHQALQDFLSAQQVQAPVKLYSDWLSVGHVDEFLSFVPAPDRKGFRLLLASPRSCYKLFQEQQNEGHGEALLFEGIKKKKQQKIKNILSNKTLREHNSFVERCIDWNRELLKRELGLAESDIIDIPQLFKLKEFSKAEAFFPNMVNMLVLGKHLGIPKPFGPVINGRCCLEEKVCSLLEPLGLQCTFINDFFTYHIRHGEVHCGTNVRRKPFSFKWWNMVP

`C[C@H]1NC(=O)[C@@]2(C)C[C@@H]2CCCCCn2c(-c3nc4cc(C(=O)N[C@H]5CNCC[C@@H]5F)c(F)cc4n3C3CC3)cc3ccc1nc32` [Example 545, 1-cyclopropyl-2-[(2~ {R},5~{S},7~{S})-2,5-dimethyl-4-oxo-3,13,19-triazatetracyclo[11.5.2.0^ {5,7}.0^{16,20}]icosa-1(19),14,16(20), 17-tetraen-14-yl]-6-fluoro-~{N}-[(3~ {S},4~{S})-4-fluoro-3-piperidyl]benzimidazole-5-carboxamide] and `C[C@H]1NC(=O)[C@@]2(C)C[C@@H]2CCCCCn2c(-c3nc4cc(C(=O)N[C@H]5CNCC[C@@H]5F)c(F)cc4n3C)cc3ccc1nc32` [Example 548, 2-[(2~{R},5~{S},7~ {S})-2,5-dimethyl-4-oxo-3,13,19-triazatetracyclo[11.5.2.0^ {5,7}.0^{16,20}]icosa-1(19),14,16(20),17-tetraen-14-yl]-6-fluoro-~{N}-[(3~{S},4~{S})-4-fluoro-3-piperidyl]-1-methyl-benzimidazole-5-carboxamide] are the same in IC50: 56 nM for the first, 56 nM for the second.

First: C[C@H]1NC(=O)c2nn(C)nc2CCCCCn2c(-c3nc4cc(C(=O)N[C@H]5CNCC[C@@H]5F)c(F)cc4n3C)cc3ccc1nc32 [Example 546, 2-[(2~{R})-2,7-dimethyl-4-oxo-3,6,7,8,15,21-hexazatetracyclo[13.5.2.0^ {5,9}.0^{18,22}]docosa-1(21),5,8,16,18(22), 19-hexaen-16-yl]-6-fluoro-~{N}-[(3~{S},4~{S})-4-fluoro-3-piperidyl]-1-methyl-benzimidazole-5-carboxamide]
Second: C[C@H]1NC(=O)[C@@]2(C)C[C@@H]2CCCC(F)(F)Cn2c(-c3nc4cc(C(=O)N[C@H]5CNCC[C@@H]5F)c(F)cc4n3C)cc3ccc1nc32 [Example 549, 2-[(2~{R},5~{S},7~ {S})-11,11-difluoro-2,5-dimethyl-4-oxo-3,13,19-triazatetracyclo [11.5.2.0^{5,7).0^ {16,20}]icosa-1(19), 14,16(20),17-tetraen-14-yl]-6-fluoro-~{N}-[(3~ {S},4~{S})-4-fluoro-3-piperidyl]-1-methyl-benzimidazole-5-carboxamide]
The IC50 of the first is 2.2-fold lower: 59 nM for the first, 129 nM for the second.

`C[C@H]1NC(=O)[C@H]2C[C@@H]2C/C=C/C(F)(F)Cn2c(-c3nc4cc(C(=O)N[C@H]5CNCC[C@@H]5F)c(F)c(F)c4n3C)cc3ccc1nc32` [Example 547, 2-[(2~{R},5~{S},7~ {S},9~{E})-11,11-difluoro-2-methyl-4-oxo-3,13,19-triazatetracyclo [11.5.2.0^{5,7}.0^{16,20}]icosa-1(19),9,14,16(20), 17-pentaen-14-yl]-6,7-difluoro-~ {N}-[(3~{S},4~{S})-4-fluoro-3-piperidyl]-1-methyl-benzimidazole-5-carboxamide] and `C[C@H]1NC(=O)[C@@H]2C[C@H]2CCCC(F)(F)Cn2c(-c3nc4cc(C(=O)N[C@H]5CNCC[C@@H]5F)c(F)c(F)c4n3C)cc3ccc1nc32` [Example 560, 2-[(2~{R},5~{R},7~ {R})-11,11-difluoro-2-methyl-4-oxo-3,13,19-triazatetracyclo[11.5.2.0^ {5,7}.0^{16,20}]icosa-1(19), 14,16(20),17-tetraen-14-yl]-6,7-difluoro-~{N}-[(3~{S},4~{S})-4-fluoro-3-piperidyl]-1-methyl-benzimidazole-5-carboxamide] are within 1.5-fold of each other in IC50: 50 nM for the first, 52 nM for the second.

`Cc1cc2c(cc1C(=O)N[C@H]1CNCC[C@@H]1F)nc(-c1cc3ccc4nc3n1CC(F)(F)/C=C/C[C@H]1C[C@@H]1C(=O)N[C@@H]4C)n2C` [Example 550, 2-[(2~{R},5~{S},7~ {S},9~{E})-11,11-difluoro-2-methyl-4-oxo-3,13,19-triazatetracyclo [11.5.2.0^{5,7}.0^{16,20}]icosa-1(19),9,14,16(20), 17-pentaen-14-yl]-~{N}-[(3~{S},4~{S})-4-fluoro-3-piperidyl]-1,6-dimethyl-benzimidazole-5-carboxamide] and `Cc1cc2c(cc1C(=O)N[C@H]1CNCC[C@@H]1F)nc(-c1cc3ccc4nc3n1CC(F)(F)CCC[C@@H]1C[C@H]1C(=O)N[C@@H]4C)n2C` [Example 551, 2-[(2~{R},5~{R},7~ {R})-11,11-difluoro-2-methyl-4-oxo-3,13,19-triazatetracyclo[11.5.2.0^ {5,7).0^{16,20}]icosa-1(19),14,16(20),17-tetraen-14-yl]-~{N}-[(3~ {S},4~{S})-4-fluoro-3-piperidyl]-1,6-dimethyl-benzimidazole-5-carboxamide] are within 1.5-fold of each other in IC50: 60 nM for the first, 43 nM for the second.

`C[C@H]1NC(=O)[C@@]2(C)C[C@@H]2C/C=C/C(F)(F)Cn2c(-c3nc4cc(C(=O)N[C@H]5CNCC[C@@H]5F)c(F)cc4n3C)cc3ccc1nc32` [Example 552, 2-[(2~{R},5~{S},7~{S}, 9~{E})-11,11-difluoro-2,5-dimethyl-4-oxo-3,13,19-triazatetracyclo[11.5.2.0^ {5,7}.0^{16,20}]icosa-1(19),9,14,16(20), 17-pentaen-14-yl]-6-fluoro-~{N}-[(3~{S},4~ {S})-4-fluoro-3-piperidyl]-1-methyl-benzimidazole-5-carboxamide] and `C[C@H]1NC(=O)[C@]2(C)C[C@H]2CCCC(F)(F)Cn2c(-c3nc4cc(C(=O)N[C@H]5CNCC[C@@H]5F)c(F)cc4n3C)cc3ccc1nc32` [Example 553, 2-[(2~{R},5~{R},7~ {R})-11,11-difluoro-2,5-dimethyl-4-oxo-3,13,19-triazatetracyclo [11.5.2.0^{5,7}.0^ {16,20}]icosa-1(19),14, 16(20),17-tetraen-14-yl]-6-fluoro-~{N}-[(3~{S}, 4~{S})-4-fluoro-3-piperidyl]-1-methyl-benzimidazole-5-carboxamide] are within 1.5-fold of each other in IC50: 61 nM for the first, 47 nM for the second.

First: C[C@H]1NC(=O)[C@]2(C)C[C@H]2CCCC(F)(F)Cn2c(-c3nc4cc(C(=O)N5[C@H]6CC[C@@H]5[C@H](N)C6)c(F)cc4n3C)cc3ccc1nc32 [Example 554, (2~{R},5~{R},7~ {R})-14-[5-[(1~{R},2~ {R},4~{S})-2-amino-7-azabicyclo[2.2.1]heptane-7-carbonyl]-6-fluoro-1-methyl-benzimidazol-2-yl]-11,11-difluoro-2,5-dimethyl-3,13,19-triazatetracyclo[11.5.2.0^ {5,7}.0^{16,20}]icosa-1(19), 14,16(20),17-tetraen-4-one]
Second: Cc1cc2c(cc1C(=O)N1[C@H]3CC[C@@H]1[C@H](N)C3)nc(-c1cc3ccc4nc3n1CCCCCCC(C)(C)C(=O)N[C@@H]4C)n2C [Example 556, (11~{R})-17-[5-[(1~{R}, 2~{R},4~{S})-2-amino-7-azabicyclo[2.2.1]heptane-7-carbonyl]-1,6-dimethyl-benzimidazol-2-yl]-8,8,11-trimethyl-1,10,19-triazatricyclo[10.5.2.0^ {15,18}]nonadeca-12(19),13,15(18),16-tetraen-9-one]
The IC50 of the first is 2-fold lower: 34 nM for the first, 69 nM for the second. The first is the more potent here.

`C[C@H]1NC(=O)C(C)(C)CCCCCCn2c(-c3nc4cc(C(=O)N5[C@H]6CC[C@@H]5[C@H](N)C6)c(F)c(F)c4n3C)cc3ccc1nc32` [Example 555, (11~{R})-17-[5-[(1~{R}, 2~{R},4~{S})-2-amino-7-azabicyclo [2.2.1]heptane-7-carbonyl]-6,7-difluoro-1-methyl-benzimidazol-2-yl]-8,8,11-trimethyl-1,10,19-triazatricyclo [10.5.2.0^{15,18}]nonadeca-12(19),13,15(18),16-tetraen-9-one] and `COCCn1c(-c2cc3ccc4nc3n2CCCCCCC(C)(C)C(=O)N[C@@H]4C)nc2cc(C(=O)N[C@H]3CNCC[C@@H]3F)c(F)c(F)c21` [Example 558, 6,7-difluoro-~{N}-[(3~{S},4~{S})-4-fluoro-3-piperidyl]-1-(2-methoxyethyl)-2-[(11~{R})-8,8,11-trimethyl-9-oxo-1,10,19-triazatricyclo [10.5.2.0^{15,18}]nonadeca-12(19),13,15(18),16-tetraen-17-yl]benzimidazole-5-carboxamide] are within 1.5-fold of each other in IC50: 56 nM for the first, 80 nM for the second.

Going from `C[C@H]1NC(=O)[C@@H]2C[C@H]2CCCCCn2c(-c3nc4cc(C(=O)N5[C@H]6CC[C@@H]5[C@H](N)C6)c(F)cc4n3C3CC3)cc3ccc1nc32` [Example 557, (2~{R},5~{R},7~{R})-14-[5-[(1~{R},2~{R},4~ {S})-2-amino-7-azabicyclo [2.2.1]heptane-7-carbonyl]-1-cyclopropyl-6-fluoro-benzimidazol-2-yl]-2-methyl-3,13,19-triazatetracyclo[11.5.2.0^ {5,7}.0^{16,20}] icosa-1(19),14,16(20), 17-tetraen-4-one] to `C[C@H]1NC(=O)[C@@H]2C[C@H]2CCCCCn2c(-c3nc4cc(C(=O)N[C@H]5CNCC[C@@H]5F)cc(C(F)(F)F)c4n3C)cc3ccc1nc32` [Example 562, ~{N}-[(3~{S},4~{S})-4-fluoro-3-piperidyl]-1-methyl-2-[(2~{R},5~{R},7~ {R})-2-methyl-4-oxo-3,13,19-triazatetracyclo [11.5.2.0^{5,7}.0^{16,20}]icosa-1(19),14,16(20), 17-tetraen-14-yl]-7-(trifluoromethyl) benzimidazole-5-carboxamide], the IC50 rises from 31 nM to 466 nM (15-fold). The first is the more potent here.

Compared with `COCCn1c(-c2cc3ccc4nc3n2CCCCC[C@@H]2C[C@H]2C(=O)N[C@@H]4C)nc2cc(C(=O)N[C@H]3CNCC[C@@H]3F)c(F)c(F)c21` [Example 559, 6,7-difluoro-~{N}-[(3~{S},4~{S})-4-fluoro-3-piperidyl]-1-(2-methoxyethyl)-2-[(2~{R},5~{R},7~ {R})-2-methyl-4-oxo-3,13,19-triazatetracyclo [11.5.2.0^{5,7}.0^{16,20}]icosa-1(19),14,16(20), 17-tetraen-14-yl] benzimidazole-5-carboxamide], `C[C@H]1NC(=O)[C@@H]2C[C@H]2C/C=C/CCn2c(-c3nc4cc(C(=O)N[C@H]5CNCC[C@@H]5F)cc(C(F)(F)F)c4n3C)cc3ccc1nc32` [Example 561, ~{N}-[(3~{S},4~{S})-4-fluoro-3-piperidyl]-1-methyl-2-[(2~{R},5~{R}, 7~{R},9~{E})-2-methyl-4-oxo-3,13,19-triazatetracyclo [11.5.2.0^{5,7}.0^{16,20}]icosa-1(19),9,14,16(20), 17-pentaen-14-yl]-7-(trifluoromethyl) benzimidazole-5-carboxamide] is 11-fold higher in IC50: 47 nM for the first, 523 nM for the second. The first is the more potent here.
